ChEMBL document CHEMBL1201862, “PubChem BioAssay data set” (2004)
Active and inactive are the calls of the source.

Assays:
[1] = target: T1, Intestinal-type alkaline phosphatase (Homo sapiens, UniProt P09923); test: human intestinal alkaline phosphatase activators, dose response, biochemical, luminescence, uHTS hits (AID 463120); format: functional
[2] = target: T1, Intestinal-type alkaline phosphatase; test: Dose Response confirmation of uHTS hits from a small molecule inhibitors of human intestinal alkaline phosphatase via a luminescent assay. [Related pubchem assays (depositor defined):AID2544, AID2574]; format: functional
[3] = target: Disintegrin and metalloproteinase domain-containing protein 17 (Homo sapiens, UniProt P78536); test: exosite inhibitors of ADAM17, dose response, biochemical (AID 743260)
[4] = ADAM10 protease inhibitors, dose response, selectivity assay for ADAM17 exosite inhibitor project, biochemical, FRET peptide substrate, recombinant human ADAM10 (AID 743259);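 note: ADAM10 enzyme cleaving a FRET peptide substrate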
Troponin, cardiac muscle = Troponin, cardiac muscle (Homo sapiens, UniProt P19429+P45379+P63316); test: Fluorescence-based biochemical high throughput dose response assay for activators of the calcium sensitivity of cardiac Regulated Thin Filaments (RTF). [Related pubchem assays (depositor defined):AID493008, AID493018, AID504382, AID504383]; format: protein-complex assay
Mucolipin-3 = target: T2, Mucolipin-3 (Homo sapiens, UniProt Q8TDD5); test: Fluorescence counterscreen assay for […] agonists: dose response cell-based high-throughput screening assay to identify agonists of the transient receptor potential channel ML3 (TRPML3). [Related pubchem assays: 1424, 1448 ]; format: functional
T2 sequence (Q8TDD5 whole entry): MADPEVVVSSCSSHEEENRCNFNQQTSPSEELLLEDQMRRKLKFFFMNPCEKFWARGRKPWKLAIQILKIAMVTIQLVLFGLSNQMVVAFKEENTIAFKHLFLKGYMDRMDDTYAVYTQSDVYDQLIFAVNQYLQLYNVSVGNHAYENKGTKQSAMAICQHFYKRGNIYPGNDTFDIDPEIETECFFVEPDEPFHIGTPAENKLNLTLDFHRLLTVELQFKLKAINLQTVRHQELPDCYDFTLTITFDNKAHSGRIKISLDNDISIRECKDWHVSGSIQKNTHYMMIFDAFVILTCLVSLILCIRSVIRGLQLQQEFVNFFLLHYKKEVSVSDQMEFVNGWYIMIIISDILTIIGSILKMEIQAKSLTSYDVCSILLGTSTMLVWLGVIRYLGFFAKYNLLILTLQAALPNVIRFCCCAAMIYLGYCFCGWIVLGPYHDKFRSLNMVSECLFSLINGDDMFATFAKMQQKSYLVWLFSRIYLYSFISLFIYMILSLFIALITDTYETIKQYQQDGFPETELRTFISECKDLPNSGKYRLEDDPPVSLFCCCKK

Ion channel NompC = Ion channel NompC (Danio rerio, UniProt Q7T1G6); test: Dose response cell-based high-throughput screening assay for agonists of the transient receptor potential channel N1 (TRPN1). [Related pubchem assays (depositor defined):AID1424, AID1448]; format: functional
Streptococcus = test: Group A Streptococcus viability loss, dose response, counter-screen for streptokinase expression inhibitor project, luminescence, BacTiterGlo (AID 1915); format: functional, organism-based;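 note: potency for reduction of bacterial viability or growth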
[5] = system: Streptococcus sp. 'group A'; test: growth inhibition of control SK(-) GAS strain, dose response, counter-screen for streptokinase expression inhibitor project, luminescence, kanamycin, BacTiterGlo, confirmation (AID 1900); format: functional, organism-based
[6] = HEK293 cell cytotoxicity, dose response, cytotoxicity control, plate reader, cherry-picked samples (AID 743446); format: functional, cell-based
[7] = Intein inhibitors as potential Tuberculosis drugs, a cytotoxicity screen. [Related pubchem assays (depositor defined):AID2221, AID2223, AID434968, AID435010, AID449749, AID449750, AID489010]; format: functional
[8] = HEp-2 cell cytotoxicity, dose response, cytotoxicity control for RSV inhibitor project, HTS (AID 2410); format: functional; settings: human respiratory syncytial virus
Protein RecA = target: T3, Protein RecA (Mycobacterium tuberculosis, UniProt P9WHJ3); test: Fluorescence Cell-Free Homogeneous Dose Retest to Identify Inhibitors of RecA-Intein Splicing Activity. [Related pubchem assays (depositor defined):AID2097, AID2223, AID489010, AID492950]; format: functional
T3 sequence (P9WHJ3 whole entry): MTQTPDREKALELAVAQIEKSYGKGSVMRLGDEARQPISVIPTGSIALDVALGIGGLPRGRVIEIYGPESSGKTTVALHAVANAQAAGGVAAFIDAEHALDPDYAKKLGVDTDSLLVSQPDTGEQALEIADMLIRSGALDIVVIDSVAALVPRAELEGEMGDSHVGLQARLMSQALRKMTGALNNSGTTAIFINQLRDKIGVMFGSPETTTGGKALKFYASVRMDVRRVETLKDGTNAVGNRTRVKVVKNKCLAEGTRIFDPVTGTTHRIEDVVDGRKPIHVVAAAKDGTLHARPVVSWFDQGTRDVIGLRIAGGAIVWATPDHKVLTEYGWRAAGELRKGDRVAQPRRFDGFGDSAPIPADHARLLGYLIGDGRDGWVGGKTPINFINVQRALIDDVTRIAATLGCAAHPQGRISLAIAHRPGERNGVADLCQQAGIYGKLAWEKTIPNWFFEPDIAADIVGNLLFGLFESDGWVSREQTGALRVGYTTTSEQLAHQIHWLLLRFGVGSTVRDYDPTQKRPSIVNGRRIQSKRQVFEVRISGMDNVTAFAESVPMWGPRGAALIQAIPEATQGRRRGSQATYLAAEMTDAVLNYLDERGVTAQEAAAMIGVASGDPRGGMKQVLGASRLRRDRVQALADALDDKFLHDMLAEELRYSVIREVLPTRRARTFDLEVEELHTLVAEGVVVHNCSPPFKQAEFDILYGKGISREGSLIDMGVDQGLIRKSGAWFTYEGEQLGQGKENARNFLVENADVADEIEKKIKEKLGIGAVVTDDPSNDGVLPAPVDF

[9] = LGR2 antagonists, dose response, cell-based, HEK293, CRE-luciferase reporter, cherry pick, set 2 (AID 743343); format: functional;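 note: transfected cells were stimulated with diluted bursicon conditioned medium after compound addition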
[10] = target: T4, Replicative DNA helicase DnaB (Mycobacterium tuberculosis, UniProt P9WMR3); test: DnaB intein splicing inhibitors, dose response, biochemical, cell-free fluorescence (AID 449749); format: functional
T4 sequence (P9WMR3 whole entry): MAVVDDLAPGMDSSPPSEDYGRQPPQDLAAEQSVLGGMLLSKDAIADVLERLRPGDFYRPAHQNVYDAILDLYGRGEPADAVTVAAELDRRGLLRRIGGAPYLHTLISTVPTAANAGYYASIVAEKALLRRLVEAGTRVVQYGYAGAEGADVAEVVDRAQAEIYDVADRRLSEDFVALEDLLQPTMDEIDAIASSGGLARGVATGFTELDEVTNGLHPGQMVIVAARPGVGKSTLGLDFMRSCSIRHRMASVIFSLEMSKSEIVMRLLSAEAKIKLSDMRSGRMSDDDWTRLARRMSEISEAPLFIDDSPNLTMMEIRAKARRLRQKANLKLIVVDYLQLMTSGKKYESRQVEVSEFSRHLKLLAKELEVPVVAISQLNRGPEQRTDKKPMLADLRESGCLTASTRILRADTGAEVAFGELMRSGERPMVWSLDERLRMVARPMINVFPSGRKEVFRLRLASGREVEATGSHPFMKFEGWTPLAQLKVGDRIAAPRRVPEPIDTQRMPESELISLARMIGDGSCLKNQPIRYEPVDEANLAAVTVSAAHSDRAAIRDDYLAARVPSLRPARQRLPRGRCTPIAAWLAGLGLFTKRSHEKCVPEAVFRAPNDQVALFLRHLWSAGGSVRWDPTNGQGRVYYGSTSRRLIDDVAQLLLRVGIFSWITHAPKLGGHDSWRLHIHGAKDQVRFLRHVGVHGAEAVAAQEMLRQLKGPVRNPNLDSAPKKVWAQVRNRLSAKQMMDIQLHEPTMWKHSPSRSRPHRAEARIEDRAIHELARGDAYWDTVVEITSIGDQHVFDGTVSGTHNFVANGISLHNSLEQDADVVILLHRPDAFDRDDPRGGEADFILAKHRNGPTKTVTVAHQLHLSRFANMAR

[11] = A549 cell cytotoxicity, dose response, cytotoxicity control, plate reader, cherry-pick, antagonist series (AID 743412); format: functional, cell-based
[12] = HepG2 cell cytotoxicity, dose response, cytotoxicity control, plate reader, cherry-pick, antagonist series (AID 743416); format: functional, cell-based
[13] = MC4R antagonists, dose response, counter-screen for LGR2 antagonist project, cell-based, plate reader, cherry pick (AID 743444); format: functional;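 note: transfected HEK 293 cells stimulated with alpha-MSH peptide; potency of inhibitors of the alpha-MSH evoked signal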
[14] = target: Voltage-dependent T-type calcium channel subunit alpha-1H (Homo sapiens, UniProt O95180); test: Cav3.2 T-type channel inhibitors, synthesized analogs, SAR follow-up, cell-based, synthetic library set 2, HEK293 HH8, Fluo-4 (AID 493023); format: functional
[15] = inhibitors of SNCA 5'UTR-driven reporter translation, confirmation, H4 neuroglioma cells, luminescence (AID 1988); format: functional, cell-based
INS1 = test: beta cell apoptosis inhibitors, cytokine rescue, dose response, luminescence, retest (AID 449756); format: functional, cell-based; settings: Rattus norvegicus;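 note: cell death triggered by IL-1 beta plus TNF-alpha plus IFN-gamma mixture; protective hits raise ATP signal compared with cytokine alone wells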
[16] = growth suppression of PTEN-null colon cells, dose response, cell-based, HCT116 PTEN knockout (AID 1047); format: functional;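 note: HCT116 colon tumor cells with PTEN knocked out; cells exposed to compound for 60 hours before readout; potency for loss of cell viability measured by luminescence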
[17] = Luminescence Cell-Based Dose Response HTS to Identify Inhibitors of 5'UTR Stem-Loop Driven Prion Protein mRNA Translation in H4 Neuroglioblastoma Cells. [Related pubchem assays: 1827 (Project Summary), 1813 (Primary HTS)]; format: functional
[18] = inhibitors of firefly luciferase expression or activity, dose response, H4 neuroglioma cells, luminescence (AID 1990); format: functional, cell-based
[19] = growth suppression of beta-catenin-knockout colon cells, dose response, cell-based, HCT116, human colon tumor (AID 1045); format: functional;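 note: HCT116 colon tumor cells with beta catenin knocked out; cells exposed to compound for 60 hours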

Which EC50 [1] does the source give for `CC(C)CCNC(=O)C1CCN(C(=O)N(C)C)CC1` here?
The EC50 was > 100 µM (inactive).

What about the IC50 [2] of the same compound?
Its IC50 is > 100 µM (inactive).

With `CCC(C(=O)O)N1C(=O)/C(=C/c2cccn2C)SC1=S` (stereo unspecified) as the compound, how does the IC50 [3] read?
Its IC50 is > 23.2 µM (inactive).

What about the IC50 [4] of the same compound?
Its IC50 is 12.5 µM (inactive).

What about the EC50 (Troponin, cardiac muscle) of the same compound?
Its EC50 is 14.4 µM (inactive).

What does the source list for `CC(C)S(=O)(=O)c1csc(NC(=O)Nc2ccc(Cl)cc2)c1`?
EC50 (Mucolipin-3): > 29.9 µM (not active); EC50 (Ion channel NompC): > 29.9 µM (inactive)

With `CCOc1cc(/C=C(\C#N)c2nc(-c3cccs3)c(NC(C)=O)s2)ccc1O` as the compound, how does the EC50 (Mucolipin-3) read?
Its EC50 is > 29.9 µM (not active).

And the EC50 (Streptococcus)?
Its EC50 is 2.02 µM (active).

And the EC50 (Ion channel NompC)?
The EC50 was 13.4 µM (inactive).

And the EC50 [5]?
Its EC50 is 0.628 µM (active).

For `Cc1sc2ncnc(Sc3nnnn3-c3ccccc3)c2c1C`, which AC50 [6] is on record?
Its AC50 is 19.3 µM (active).

What about the CC50 [7] of the same compound?
The CC50 was 14.4 µM (active).

What about the CC50 [8] of the same compound?
The CC50 was 11.2 µM (active).

What about the EC50 (Protein RecA) of the same compound?
The EC50 was 3.18 µM (active).

What about the AC50 [9] of the same compound?
Its AC50 is 4.15 µM (active).

And the AC50 [10]?
Its AC50 is 3.83 µM (active).

And the AC50 [11]?
Its AC50 is 10.9 µM (active).

And the AC50 [12]?
Its AC50 is 15.4 µM (active).

And the AC50 [13]?
The AC50 was 3.94 µM (active).

For `O=C(N[C@H]1CCCN(Cc2ccccc2)C1)c1ccc(Cl)cc1Cl`, which EC50 [14] is on record?
The EC50 was 10 µM (active).

For `CC(C)(C)CCN1CCC[C@H](NC(=O)c2cc(Cl)cc(Cl)c2)C1`, which EC50 [14] is on record?
The EC50 was 10 µM (active).

For `CCOC(=O)C1CCN(C(=O)c2c(C)oc3c2C(=O)c2ccccc2C3=O)CC1`, which CC50 [7] is on record?
The CC50 was 13.7 µM (active).

What about the EC50 [15] of the same compound?
Its EC50 is 7.82 µM (active).

What about the AC50 (INS1) of the same compound?
Its AC50 is 6.25 µM (active).

What about the EC50 (Protein RecA) of the same compound?
Its EC50 is 0.645 µM (active).

What about the EC50 [16] of the same compound?
The EC50 was 3.87 µM (active).

And the EC50 [17]?
The EC50 was 18.3 µM (active).

And the EC50 [18]?
The EC50 was > 120 µM (not active).

What about the AC50 [10] of the same compound?
Its AC50 is 2.06 µM (active).

What about the EC50 [19] of the same compound?
Its EC50 is 3.32 µM (active).
